Experimental data: the Kinase Knowledgebase extract (Sharma et al. 2016)

molecular target: EGFR (human) (UniProt P00533)
Sequence (P00533 whole entry, looked up): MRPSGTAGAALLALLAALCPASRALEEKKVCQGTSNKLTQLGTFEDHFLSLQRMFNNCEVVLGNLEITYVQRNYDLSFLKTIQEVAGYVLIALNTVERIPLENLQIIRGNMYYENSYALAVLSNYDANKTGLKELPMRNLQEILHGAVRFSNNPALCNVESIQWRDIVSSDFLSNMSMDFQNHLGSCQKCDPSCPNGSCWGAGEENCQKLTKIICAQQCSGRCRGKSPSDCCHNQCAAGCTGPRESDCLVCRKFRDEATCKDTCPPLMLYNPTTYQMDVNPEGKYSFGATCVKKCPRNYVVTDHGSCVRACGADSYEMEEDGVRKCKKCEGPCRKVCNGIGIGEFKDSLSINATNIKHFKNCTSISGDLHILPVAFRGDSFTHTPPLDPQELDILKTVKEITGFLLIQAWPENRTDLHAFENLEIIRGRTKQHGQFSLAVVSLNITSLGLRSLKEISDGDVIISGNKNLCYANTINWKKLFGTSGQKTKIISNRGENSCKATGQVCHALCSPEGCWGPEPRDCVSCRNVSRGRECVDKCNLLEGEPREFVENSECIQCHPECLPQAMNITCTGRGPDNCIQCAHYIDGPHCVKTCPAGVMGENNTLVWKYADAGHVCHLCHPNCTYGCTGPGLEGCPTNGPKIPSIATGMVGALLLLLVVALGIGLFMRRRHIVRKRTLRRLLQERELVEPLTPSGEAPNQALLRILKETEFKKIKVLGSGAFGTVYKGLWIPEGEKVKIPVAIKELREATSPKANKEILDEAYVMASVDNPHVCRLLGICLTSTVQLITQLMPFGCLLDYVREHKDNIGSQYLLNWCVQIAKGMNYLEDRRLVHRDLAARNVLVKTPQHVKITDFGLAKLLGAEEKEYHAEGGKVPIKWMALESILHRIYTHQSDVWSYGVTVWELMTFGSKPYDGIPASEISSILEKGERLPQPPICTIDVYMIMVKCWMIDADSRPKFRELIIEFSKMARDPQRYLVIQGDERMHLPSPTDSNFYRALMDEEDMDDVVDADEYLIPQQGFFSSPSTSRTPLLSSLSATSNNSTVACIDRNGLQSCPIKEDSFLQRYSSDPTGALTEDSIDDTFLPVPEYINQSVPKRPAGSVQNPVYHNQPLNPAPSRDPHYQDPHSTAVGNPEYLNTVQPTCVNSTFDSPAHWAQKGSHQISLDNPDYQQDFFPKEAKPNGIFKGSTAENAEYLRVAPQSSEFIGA

Row | Compound | IC50
1 | Cc1ccc(C(=O)Nc2ccc(C(C)C)cc2)c(O)c1 | > 50 µM
2 | O=C(Nc1ccccc1)c1ccccc1O | > 50 µM
3 | O=C(Nc1ccc(Br)cc1)c1ccccc1O | > 50 µM
4 | Cc1ccc(C(=O)Nc2ccccc2)c(O)c1 | > 50 µM
5 | Cc1ccc(C(=O)Nc2ccc(F)cc2F)c(O)c1 | > 50 µM
6 | O=C(Nc1ccc(F)cc1)c1cc(I)ccc1O | > 50 µM
7 | Cc1ccc(C(=O)Nc2ccc(Cl)cc2)c(O)c1 | > 50 µM
8 | O=C(Nc1ccc(F)cc1F)c1ccccc1O | > 50 µM
9 | O=C(Nc1ccc(F)cc1)c1cc(Br)cc(Br)c1O | > 50 µM
10 | O=C(Nc1ccc(F)cc1)c1ccccc1O | > 50 µM
